Reference: patent US20250122188A1, “MODULATORS OF THE INTEGRATED STRESS PATHWAY” (Calico Life Sciences LLC, priority 2016, published 2025)

Test system: ATF4 luciferase reporter in HEK293T cells
Experiment: ATF4-Luc assay, HEK293T cells carrying the ATF4 luciferase reporter (in vitro model of VWMD)
Assay type: cell-based
Details: Homo sapiens, HEK-293T; HEK293T ATF4 luciferase reporter cells, 1 μg/mL tunicamycin, 7 hours; read-out: ATF4-Luc EC50
Procedure: In order to test exemplary compounds of the invention in a cellular context, a stable VWMD cell line was first constructed. The ATF4 reporter was prepared by fusing the human full-length ATF4 5′-UTR (NCBI Accession No. BC022088.2) in front of the firefly luciferase (FLuc) coding sequence lacking the initiator methionine as described in Sidrauski et al (eLife 2013). The construct was used to produce recombinant retroviruses using standard methods and the resulting viral supernatant was used to transduce HEK293T cells, which were then subsequently selected with puromycin to generate a stable cell line.
HEK293T cells carrying the ATF4 luciferase reporter were plated on polylysine coated 384-well plates (Greiner Bio-one) at 30,000 cells per well. Cells were treated the next day with 1 μg/mL tunicamycin and 200 nM of a compound of Formula (I) for 7 hours. Luminescence was measured using One Glo (Promega) as specified by the manufacturer. Cells were maintained in DMEM with L-glutamine supplemented with 10% heat-inactivated FBS (Gibco) and Antibiotic-Antimycotic solution (Gibco).

O=C(COc1ccc(Cl)c(F)c1)NC12CCC(NC(=O)COc3ccc(C(F)(F)F)nc3)(CC1)[C@H](O)C2 (single isomer, unassigned) [Compound 302]
EC50: < 10 nM

O=C(COc1ccc(Cl)c(F)c1)NC12CCC(NC(=O)COc3ccnc(C(F)(F)F)c3)(CC1)[C@@H](O)C2 (single isomer, unassigned) [Compound 318]
EC50: 10 to 50 nM

O=C(COc1ccc(Cl)c(F)c1)NC12CCC(NC(=O)COc3ccc(C(F)(F)F)nc3)(CC1)[C@@H](F)C2 (single isomer, unassigned) [Compound 372]
EC50: 50 to 250 nM

O=C(CCn1ncc(Cl)cc1=O)NC12CC(NC(=O)COc3ccc(Cl)c(F)c3)(C1)C2 [Compound 104, N-{3-[2-(4-chloro-3-fluorophenoxy)acetamido]bicyclo[1.1.1]pentan-1-yl}-3-(4-chloro-6-oxopyridazin-1(6H)-yl)propanamide]
EC50: 250 to 500000 nM

O=C(COCCc1ccc(Cl)cc1)NC12CC(NC(=O)COc3ccc(Cl)c(F)c3)(C1)C2 [Compound 135, 2-(4-chloro-3-fluorophenoxy)-N-(3-{2-[2-(4-chlorophenyl)ethoxy]acetamido}-bicyclo[1.1.1]pentan-1-yl)acetamide]
EC50: 250 to 500000 nM

Cc1cccc(CCOCC(=O)NC23CC(NC(=O)COc4ccc(Cl)c(F)c4)(C2)C3)c1 [Compound 136, 2-(4-chloro-3-fluorophenoxy)-N-(3-{2-[2-(3-methylphenyl)ethoxy]acetamido}-bicyclo[1.1.1]pentan-1-yl)acetamide]
EC50: 250 to 500000 nM

N#Cc1cccc(COCC(=O)NC23CC(NC(=O)COc4ccc(Cl)c(F)c4)(C2)C3)c1 [Compound 138, 2-(4-chloro-3-fluorophenoxy)-N-(3-{2-[(3-cyanophenyl)methoxy]acetamido}-bicyclo[1.1.1]pentan-1-yl)acetamide]
EC50: 250 to 500000 nM

N#Cc1ccc(COCC(=O)NC23CC(NC(=O)COc4ccc(Cl)c(F)c4)(C2)C3)cc1 [Compound 139, 2-(4-chloro-3-fluorophenoxy)-N-(3-{2-[(4-cyanophenyl)methoxy]acetamido}-bicyclo[1.1.1]pentan-1-yl)acetamide]
EC50: 250 to 500000 nM

Cc1ccc(COCC(=O)NC23CC(NC(=O)COc4ccc(Cl)c(F)c4)(C2)C3)cc1 [Compound 144, 2-(4-chloro-3-fluorophenoxy)-N-(3-{2-[(4-methylphenyl)methoxy]acetamido}-bicyclo[1.1.1]pentan-1-yl)acetamide]
EC50: 250 to 500000 nM

Cc1ccc(CCOCC(=O)NC23CC(NC(=O)COc4ccc(Cl)c(Cl)c4)(C2)C3)cc1 [Compound 154, 2-(3,4-dichlorophenoxy)-N-(3-{2-[2-(4-methylphenyl)ethoxy]acetamido}-bicyclo[1.1.1]pentan-1-yl)acetamide]
EC50: 250 to 500000 nM

O=C(CCOCc1cccc(Cl)c1)NC12CC(NC(=O)COc3ccc(Cl)c(F)c3)(C1)C2 [Compound 163, N-{3-[2-(4-chloro-3-fluorophenoxy)acetamido]bicyclo[1.1.1]pentan-1-yl}-3-[(3-chlorophenyl)methoxy]propanamide]
EC50: 250 to 500000 nM

O=C(COc1ccc(Cl)c(F)c1)NC12CC(NC(=O)OCCCc3cccc(Cl)c3)(C1)C2 [Compound 166, 3-(3-chlorophenyl)propyl {3-[2-(4-chloro-3-fluorophenoxy)acetamido]-bicyclo[1.1.1]pentan-1-yl}carbamate]
EC50: 250 to 500000 nM

O=C(CCOc1cccc(Cl)c1)NC12CC(NC(=O)COc3ccc(Cl)c(Cl)c3)(C1)C2 [Compound 169, 3-(3-chlorophenoxy)-N-{3-[2-(3,4-dichlorophenoxy)acetamido]bicyclo-[1.1.1]pentan-1-yl}propanamide]
EC50: 250 to 500000 nM

O=C(COc1ccc(Cl)c(Cl)c1)NC12CC(NC(=O)OCCCc3cccc(Cl)c3)(C1)C2 [Compound 174, 3-(3-chlorophenyl)propyl {3-[2-(3,4-dichlorophenoxy)acetamido]-bicyclo[1.1.1]pentan-1-yl}carbamate]
EC50: 250 to 500000 nM

Cc1cc(Cl)ncc1OCC(=O)NC12CC(NC(=O)COc3ccc(Cl)c(F)c3)(C1)C2 [Compound 243, 2-(4-chloro-3-fluorophenoxy)-N-(3-{2-[(6-chloro-4-methylpyridin-3-yl)oxy]acetamido}bicyclo[1.1.1]pentan-1-yl)acetamide]
EC50: 250 to 500000 nM

Cc1nc(F)ccc1OCC(=O)NC12CC(NC(=O)COc3ccc(Cl)c(F)c3)(C1)C2 [Compound 249, 2-(4-chloro-3-fluorophenoxy)-N-(3-{2-[(6-fluoro-2-methylpyridin-3-yl)oxy]acetamido}bicyclo[1.1.1]pentan-1-yl)acetamide]
EC50: 250 to 500000 nM

O=C(COc1ccc(Cl)c(F)c1)NC12CC(NC(=O)COc3cnc4cc[nH]c4c3)(C1)C2 [Compound 254, 2-(4-chloro-3-fluorophenoxy)-N-(3-{2-[(1H-pyrrolo[3,2-b]pyridin-6-yl)oxy]acetamido}bicyclo[1.1.1]pentan-1-yl)acetamide]
EC50: 250 to 500000 nM

NCc1ccc(OCC(=O)NC23CC(NC(=O)COc4ccc(Cl)c(F)c4)(C2)C3)cn1 [Compound 259, 2-{[6-(aminomethyl)pyridin-3-yl]oxy}-N-{3-[2-(4-chloro-3-fluorophenoxy)acetamido]bicyclo[1.1.1]pentan-1-yl}acetamide]
EC50: 250 to 500000 nM

N#Cc1cc(OCC(=O)NC23CC(NC(=O)COc4ccc5c(c4)OC(F)(F)O5)(C2)C3)ccn1 [Compound 270, 2-[(2-cyanopyridin-4-yl)oxy]-N-(3-{2-[(2,2-difluoro-2H-1,3-benzodioxol-5-yl)oxy]acetamido}bicyclo[1.1.1]pentan-1-yl)acetamide]
EC50: 250 to 500000 nM

N#Cc1cc(OCC(=O)NC23CC(NC(=O)COc4ccc(Cl)c(F)c4)(C2)C3)ccn1 [Compound 277, 2-(4-chloro-3-fluorophenoxy)-N-(3-{2-[(2-cyanopyridin-4-yl)oxy]acetamido}bicyclo[1.1.1]pentan-1-yl)acetamide]
EC50: 250 to 500000 nM

O=C(COCc1ccc(OC(F)F)nc1)NC12CC(NC(=O)COc3ccc(Cl)c(F)c3)(C1)C2 [Compound 279, 2-(4-chloro-3-fluorophenoxy)-N-[3-(2-{[6-(difluoromethoxy)pyridin-3-yl]methoxy}acetamido)bicyclo[1.1.1]pentan-1-yl]acetamide]
EC50: 250 to 500000 nM

O=C(COc1ccc(Cl)c(F)c1)NC12CC(NCC(=O)c3ccc(Cl)c(F)c3)(C1)C2 [Compound 291, 2-(4-chloro-3-fluorophenoxy)-N-(3-{[2-(4-chloro-3-fluorophenyl)-2-oxoethyl]amino}bicyclo[1.1.1]pentan-1-yl)acetamide]
EC50: 250 to 500000 nM

O=C(COc1ccc(Cl)c(F)c1)NC12CC(NC(=O)CC(=O)c3ccc(Cl)cc3)(C1)C2 [Compound 293, N-{3-[2-(4-chloro-3-fluorophenoxy)acetamido]bicyclo[1.1.1]pentan-1-yl}-3-(4-chlorophenyl)-3-oxopropanamide]
EC50: 250 to 500000 nM

O=C(COc1ccc(Cl)c(F)c1)NC12CCC(NC(=O)COc3ccnn(CC(F)(F)F)c3=O)(CC1)C(O)C2 (stereo not shown) [Compound 333, 2-(4-chloro-3-fluorophenoxy)-N-[3-hydroxy-4-(2-{[3-oxo-2-(2,2,2-trifluoroethyl)-2,3-dihydropyridazin-4-yl]oxy}acetamido)bicyclo[2.2.2]octan-1-yl]acetamide]
EC50: 250 to 500000 nM

O=C(COc1ccc(Cl)c(F)c1)NC12CCC(NCCOc3ccc(Cl)c(Cl)c3)(CC1)CC2O (stereo not shown) [Compound 337, 2-(4-chloro-3-fluorophenoxy)-N-(4-{[2-(3,4-dichlorophenoxy)ethyl]amino}-2-hydroxybicyclo[2.2.2]octan-1-yl)acetamide]
EC50: < 10 nM

O=C(COc1ccc(Cl)c(F)c1)NC12CC(NC(=O)Cc3ccc(C(F)(F)F)nc3)(C1)C2 [Compound 342, 2-(4-chloro-3-fluorophenoxy)-N-(3-{2-[6-(trifluoromethyl)pyridin-3-yl]acetamido}bicyclo[1.1.1]pentan-1-yl)acetamide]
EC50: 250 to 500000 nM

COc1ccc(/C=C/C(=O)NC23CC(NC(=O)COc4ccc(Cl)c(F)c4)(C2)C3)cc1 [Compound 347, (2E)-N-{3-[2-(4-chloro-3-fluorophenoxy)acetamido]bicyclo[1.1.1]pentan-1-yl}-3-(4-methoxyphenyl)prop-2-enamide]
EC50: 250 to 500000 nM

O=C(/C=C/c1ccc(C(F)(F)F)nc1)NC12CC(NC(=O)COc3ccc(Cl)c(F)c3)(C1)C2 [Compound 351, (2E)-N-{3-[2-(4-chloro-3-fluorophenoxy)acetamido]bicyclo[1.1.1]pentan-1-yl}-3-[6-(trifluoromethyl)pyridin-3-yl]prop-2-enamide]
EC50: 250 to 500000 nM

O=C(COc1ccc(Cl)c(F)c1)NC12CCC(NC(=O)COc3ccc(F)cc3)(CC1)[C@@H](O)C2 [Compound 354, 2-(4-chloro-3-fluorophenoxy)-N-{(3S)-4-[2-(4-fluorophenoxy)acetamido]-3-hydroxybicyclo[2.2.2]octan-1-yl}acetamide]
EC50: < 10 nM

O=C(COc1ccc(Cl)c(F)c1)NC12CC(NC(=O)COc3ccnn3C3CC3)(C1)C2 [Compound 371, 2-(4-chloro-3-fluorophenoxy)-N-(3-{2-[(1-cyclopropyl-1H-pyrazol-5-yl)oxy]acetamido}bicyclo[1.1.1]pentan-1-yl)acetamide]
EC50: 250 to 500000 nM

O=C(COc1ccc(Cl)c(F)c1)NC12CCC(NC(=O)COc3ccc(C(F)(F)F)nc3)(CC1)[C@@H](F)C2 [Compound 373, 2-(4-chloro-3-fluorophenoxy)-N-[(3S)-3-fluoro-4-(2-{[6-(trifluoromethyl)pyridin-3-yl]oxy}acetamido)bicyclo[2.2.2]octan-1-yl]acetamide]
EC50: 50 to 250 nM
